Drawing on patent US8901133B2, “Heterocyclic compounds and uses thereof” (Infinity Pharmaceuticals, Inc., priority 2010, dated 2014), this text covers IC50 for 25 molecules.

One test addresses T1, PI3Kδ (Homo sapiens, UniProt O00329).
T1 construct: purchased Millipore Corporation 14-604-K
Nature of the test: PI3 Kinase HTRF assay, PI3Kδ. Type of test: biochemical. Particulars: 10 μM PIP2, 10 μM ATP; read-out: PI3K δ IC50. An outline of the steps: (§1)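 Recombinant human PI3K isoforms converting 10 μM PIP2 with 10 μM ATP; compound preincubated 15 min, reaction 1 h at room temperature, 2% DMSO. PIP3 detected by competitive HTRF (GRP1 PH domain displacement); IC50 by nonlinear regression of 12-point curves, 20 μM to 0.1 nM.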
In general terms: TR-FRET usually uses a lanthanide donor and a delayed reading to cut background.

Another test deals with T2, PI3Kγ (Homo sapiens, UniProt P48736).
T2 construct: purchased Millipore Corporation 14-558-K
T2 sequence (P48736 whole entry): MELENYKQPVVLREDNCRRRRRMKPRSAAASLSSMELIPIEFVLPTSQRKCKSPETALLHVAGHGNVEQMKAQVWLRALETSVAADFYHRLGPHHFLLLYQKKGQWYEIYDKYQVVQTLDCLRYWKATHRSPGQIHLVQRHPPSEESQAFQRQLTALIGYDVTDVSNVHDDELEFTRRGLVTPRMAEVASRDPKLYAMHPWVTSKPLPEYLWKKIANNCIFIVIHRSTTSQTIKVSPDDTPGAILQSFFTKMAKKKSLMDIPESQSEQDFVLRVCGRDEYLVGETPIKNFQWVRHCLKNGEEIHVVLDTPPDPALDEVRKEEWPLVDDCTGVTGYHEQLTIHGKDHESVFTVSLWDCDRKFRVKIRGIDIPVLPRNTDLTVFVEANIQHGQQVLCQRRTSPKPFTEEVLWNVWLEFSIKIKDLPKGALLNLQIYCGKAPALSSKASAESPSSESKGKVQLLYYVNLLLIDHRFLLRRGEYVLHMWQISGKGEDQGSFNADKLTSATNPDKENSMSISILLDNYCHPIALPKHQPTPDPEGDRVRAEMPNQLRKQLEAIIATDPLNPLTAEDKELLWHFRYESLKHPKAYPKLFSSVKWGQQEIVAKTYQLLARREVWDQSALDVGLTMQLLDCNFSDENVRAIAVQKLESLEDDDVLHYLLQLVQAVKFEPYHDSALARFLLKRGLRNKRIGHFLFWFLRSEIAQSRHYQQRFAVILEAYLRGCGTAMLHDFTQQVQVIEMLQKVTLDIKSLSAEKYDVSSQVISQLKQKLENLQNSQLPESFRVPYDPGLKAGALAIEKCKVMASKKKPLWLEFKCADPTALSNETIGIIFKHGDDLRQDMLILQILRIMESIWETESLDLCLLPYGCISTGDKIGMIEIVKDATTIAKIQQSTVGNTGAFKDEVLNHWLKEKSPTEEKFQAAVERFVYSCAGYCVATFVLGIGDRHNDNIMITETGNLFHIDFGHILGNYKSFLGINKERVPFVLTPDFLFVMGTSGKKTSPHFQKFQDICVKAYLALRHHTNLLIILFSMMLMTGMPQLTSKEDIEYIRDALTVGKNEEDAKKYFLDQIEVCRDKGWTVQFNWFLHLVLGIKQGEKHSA
Description: PI3 Kinase HTRF assay, PI3Kγ. Type of test: biochemical. Particulars: 10 μM PIP2, 10 μM ATP; read-out: PI3K γ IC50. An outline of the steps:
as §1

For the next test, the target named is T3, PI3Kα (Homo sapiens, UniProt P42336).
T3 construct: purchased Millipore Corporation 14-602-K
T3 sequence (P42336 whole entry): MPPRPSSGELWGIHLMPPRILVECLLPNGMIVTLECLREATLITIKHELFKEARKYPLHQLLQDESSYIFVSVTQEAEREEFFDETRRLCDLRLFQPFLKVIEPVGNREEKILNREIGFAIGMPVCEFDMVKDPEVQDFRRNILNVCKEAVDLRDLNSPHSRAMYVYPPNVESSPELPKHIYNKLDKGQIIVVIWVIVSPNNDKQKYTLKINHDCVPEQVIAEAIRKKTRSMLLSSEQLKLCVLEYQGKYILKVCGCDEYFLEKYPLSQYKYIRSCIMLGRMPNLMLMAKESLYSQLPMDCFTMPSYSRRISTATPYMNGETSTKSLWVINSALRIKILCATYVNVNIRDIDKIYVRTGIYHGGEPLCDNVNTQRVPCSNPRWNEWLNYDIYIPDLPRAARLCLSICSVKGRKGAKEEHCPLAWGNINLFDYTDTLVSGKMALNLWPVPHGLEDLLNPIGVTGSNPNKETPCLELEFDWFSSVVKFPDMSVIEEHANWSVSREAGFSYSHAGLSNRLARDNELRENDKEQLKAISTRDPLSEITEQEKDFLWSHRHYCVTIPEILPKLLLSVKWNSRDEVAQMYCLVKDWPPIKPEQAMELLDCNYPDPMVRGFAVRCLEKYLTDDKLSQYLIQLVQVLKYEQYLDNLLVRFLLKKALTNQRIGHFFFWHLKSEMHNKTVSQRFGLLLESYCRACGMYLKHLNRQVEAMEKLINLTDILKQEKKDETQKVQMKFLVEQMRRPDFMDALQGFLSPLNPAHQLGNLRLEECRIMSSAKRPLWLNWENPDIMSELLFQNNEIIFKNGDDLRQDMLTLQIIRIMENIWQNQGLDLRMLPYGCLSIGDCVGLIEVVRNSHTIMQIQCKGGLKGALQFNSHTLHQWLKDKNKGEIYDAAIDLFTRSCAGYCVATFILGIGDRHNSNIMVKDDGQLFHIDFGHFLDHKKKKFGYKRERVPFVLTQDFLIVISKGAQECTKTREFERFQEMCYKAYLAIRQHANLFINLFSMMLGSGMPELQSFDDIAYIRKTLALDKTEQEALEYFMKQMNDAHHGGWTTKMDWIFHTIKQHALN
T3 sequence (P27986 whole entry partner): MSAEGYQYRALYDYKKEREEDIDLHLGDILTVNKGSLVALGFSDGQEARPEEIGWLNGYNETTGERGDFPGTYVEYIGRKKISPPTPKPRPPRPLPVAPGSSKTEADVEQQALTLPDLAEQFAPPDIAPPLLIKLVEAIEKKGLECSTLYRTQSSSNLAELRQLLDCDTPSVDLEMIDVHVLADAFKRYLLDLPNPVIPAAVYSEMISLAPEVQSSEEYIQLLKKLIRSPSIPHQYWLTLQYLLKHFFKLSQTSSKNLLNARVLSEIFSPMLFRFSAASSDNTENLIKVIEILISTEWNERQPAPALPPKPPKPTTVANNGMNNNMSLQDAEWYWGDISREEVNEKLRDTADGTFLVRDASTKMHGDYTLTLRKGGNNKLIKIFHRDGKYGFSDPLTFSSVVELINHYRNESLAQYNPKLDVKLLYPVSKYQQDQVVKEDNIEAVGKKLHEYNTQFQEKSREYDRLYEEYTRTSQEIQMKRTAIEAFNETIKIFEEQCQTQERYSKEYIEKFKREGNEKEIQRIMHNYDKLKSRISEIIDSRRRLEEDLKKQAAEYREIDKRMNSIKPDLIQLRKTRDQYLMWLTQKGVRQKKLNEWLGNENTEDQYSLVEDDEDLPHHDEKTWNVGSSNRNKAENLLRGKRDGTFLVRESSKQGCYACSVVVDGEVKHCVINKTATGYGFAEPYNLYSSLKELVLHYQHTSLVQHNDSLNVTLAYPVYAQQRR
Nature of the test: PI3 Kinase HTRF assay, PI3Kα. The class given is biochemical. The settings on record: 10 μM PIP2, 10 μM ATP; read-out: PI3K α IC50. An outline of the steps:
as §1

The next test deals with T4, PI3Kβ (Homo sapiens, UniProt P42338).
T4 construct: purchased Millipore Corporation 14-603-K
T4 sequence (P42338 whole entry): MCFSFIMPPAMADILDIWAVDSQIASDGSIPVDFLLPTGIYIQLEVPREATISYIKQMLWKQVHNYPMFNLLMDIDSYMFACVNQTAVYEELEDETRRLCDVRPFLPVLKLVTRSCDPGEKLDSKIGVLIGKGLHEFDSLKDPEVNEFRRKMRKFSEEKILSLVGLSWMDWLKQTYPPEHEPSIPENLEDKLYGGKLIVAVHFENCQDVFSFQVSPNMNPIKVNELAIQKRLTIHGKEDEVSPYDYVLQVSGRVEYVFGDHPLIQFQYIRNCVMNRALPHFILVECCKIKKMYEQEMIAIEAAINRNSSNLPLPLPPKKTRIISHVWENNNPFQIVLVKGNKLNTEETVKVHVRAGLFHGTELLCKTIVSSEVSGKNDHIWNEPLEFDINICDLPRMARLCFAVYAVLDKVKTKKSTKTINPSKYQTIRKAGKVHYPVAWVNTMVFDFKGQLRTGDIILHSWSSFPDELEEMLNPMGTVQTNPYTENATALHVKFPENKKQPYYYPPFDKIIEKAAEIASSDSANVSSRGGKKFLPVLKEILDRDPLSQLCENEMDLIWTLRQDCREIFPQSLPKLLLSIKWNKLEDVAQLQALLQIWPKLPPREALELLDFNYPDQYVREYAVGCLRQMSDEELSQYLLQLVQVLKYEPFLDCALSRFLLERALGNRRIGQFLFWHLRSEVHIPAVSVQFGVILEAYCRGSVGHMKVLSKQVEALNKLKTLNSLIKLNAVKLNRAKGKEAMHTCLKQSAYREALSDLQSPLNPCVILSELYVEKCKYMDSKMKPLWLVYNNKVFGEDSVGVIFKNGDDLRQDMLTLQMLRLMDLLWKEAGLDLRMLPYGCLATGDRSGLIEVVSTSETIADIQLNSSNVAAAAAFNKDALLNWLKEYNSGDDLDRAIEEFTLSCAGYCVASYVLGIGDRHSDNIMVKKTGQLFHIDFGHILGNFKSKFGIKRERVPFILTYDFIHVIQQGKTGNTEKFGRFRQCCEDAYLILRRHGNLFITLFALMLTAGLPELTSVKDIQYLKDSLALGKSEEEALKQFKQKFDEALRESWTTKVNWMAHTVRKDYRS
T4 sequence (P27986 whole entry partner): as the sequence (P27986 whole entry partner) above
Nature of the test: PI3 Kinase HTRF assay, PI3Kβ. The class given is biochemical. The settings on record: 10 μM PIP2, 10 μM ATP; read-out: PI3K β IC50. In short, it runs like this:
as §1

In another test the test system is Balb/c splenic B cells. Description: B cell activation and proliferation assay (Alamar Blue). The settings on record: Mus musculus, read-out: B cell prolif. IC50. The class given is cell-based. Here is the method: The ability of one or more subject compounds to inhibit B cell activation and proliferation is determined according to standard procedures known in the art. For example, an in vitro cellular proliferation assay is established that measures the metabolic activity of live cells. The assay is performed in a 96 well microtiter plate using Alamar Blue reduction. Balb/c splenic B cells are purified over a Ficoll-Paque™ PLUS gradient followed by magnetic cell separation using a MACS B cell Isolation Kit (Miletenyi). Cells are plated in 90 ul at 50,000 cells/well in B Cell Media (RPMI+10% FBS+Penn/Strep+50 uM bME+5 mM HEPES). A compound disclosed herein is diluted in B Cell Media and added in a 10 μl volume. Plates are incubated for 30 min at 37 C and 5% CO2 (0.2% DMSO final concentration). A 50 μl B cell stimulation cocktail is then added containing either 10 ug/ml LPS or 5 ug/ml F(ab′)2 Donkey anti-mouse IgM plus 2 ng/ml recombinant mouse IL4 in B Cell Media. Plates are incubated for 72 hours at 37° C. and 5% CO2. A volume of 15 μl of Alamar Blue reagent is added to each well and plates are incubated for 5 hours at 37 C and 5% CO2. Alamar Blue fluoresce is read at 560Ex/590Em, and IC50 or EC50 values are calculated using GraphPad Prism 5.
Background: The colour change of resazurin is a common sign of viable cells or microbes.

Molecules are shown by their SMILES.

T1 sequence (O00329 whole entry): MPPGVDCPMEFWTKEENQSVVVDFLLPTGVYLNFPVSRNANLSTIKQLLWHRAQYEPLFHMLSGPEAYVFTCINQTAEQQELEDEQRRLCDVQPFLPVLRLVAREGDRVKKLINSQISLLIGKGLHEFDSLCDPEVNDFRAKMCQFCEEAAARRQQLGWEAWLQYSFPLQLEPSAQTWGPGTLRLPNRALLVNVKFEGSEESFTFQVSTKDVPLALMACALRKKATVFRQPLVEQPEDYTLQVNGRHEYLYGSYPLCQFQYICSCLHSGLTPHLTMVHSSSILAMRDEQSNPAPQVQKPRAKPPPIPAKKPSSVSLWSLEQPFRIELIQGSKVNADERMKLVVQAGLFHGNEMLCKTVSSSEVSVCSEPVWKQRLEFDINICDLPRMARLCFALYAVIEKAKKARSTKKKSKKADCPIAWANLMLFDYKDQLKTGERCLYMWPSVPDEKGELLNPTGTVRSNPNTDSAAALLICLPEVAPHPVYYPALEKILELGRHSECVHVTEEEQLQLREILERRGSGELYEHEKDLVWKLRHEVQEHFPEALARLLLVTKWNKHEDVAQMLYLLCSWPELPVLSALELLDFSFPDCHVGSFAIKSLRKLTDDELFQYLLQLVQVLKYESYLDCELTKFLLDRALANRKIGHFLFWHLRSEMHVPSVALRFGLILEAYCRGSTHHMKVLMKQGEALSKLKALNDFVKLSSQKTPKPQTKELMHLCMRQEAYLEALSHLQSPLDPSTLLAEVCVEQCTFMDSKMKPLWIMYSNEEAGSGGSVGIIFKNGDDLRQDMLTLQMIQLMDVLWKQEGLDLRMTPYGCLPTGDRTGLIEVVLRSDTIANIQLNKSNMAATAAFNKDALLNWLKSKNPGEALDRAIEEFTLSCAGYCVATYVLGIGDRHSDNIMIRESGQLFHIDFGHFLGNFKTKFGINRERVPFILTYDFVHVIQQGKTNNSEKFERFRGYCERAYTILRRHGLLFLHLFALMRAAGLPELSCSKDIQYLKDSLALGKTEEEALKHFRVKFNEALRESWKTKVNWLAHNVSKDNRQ
T1 sequence (P27986 whole entry partner): as the sequence (P27986 whole entry partner) above

As a reminder, the IC50 is the point on the concentration scale where inhibition reaches its midpoint. Take `C[C@H](Nc1ncnc2[nH]cnc12)c1cc2cccc(Cl)c2c(C(=O)NC2CCC2)n1` [Compound 23]: the IC50 was < 0.1 µM on PI3Kδ; < 10 µM on PI3Kγ; > 10 µM at PI3Kα; > 10 µM at PI3Kβ; < 0.1 µM in the test with Balb/c splenic B cells.
Take `C[C@H](Nc1ncnc2[nH]cnc12)c1cc2cccc(Cl)c2c(C(=O)N2CCC2)n1` [Compound 24]: the IC50 at PI3Kδ is < 1 µM; on PI3Kγ it was < 10 µM; on PI3Kα, > 10 µM; on PI3Kβ it was < 10 µM; in the test on Balb/c splenic B cells, < 1 µM.
`C[C@H](Nc1ncnc2[nH]cnc12)c1cc2cccc(Cl)c2c(C(=O)Nc2ccccc2)n1` [Compound 25]: the IC50 is < 0.1 µM on PI3Kδ; < 10 µM on PI3Kγ; > 10 µM at PI3Kα; < 10 µM at PI3Kβ; < 1 µM in the test with Balb/c splenic B cells.
As to `C[C@H](Nc1ncnc2[nH]cnc12)c1cc2cccc(Cl)c2c(C(=O)NCc2ccccc2)n1` [Compound 26], the IC50 on PI3Kδ was < 0.1 µM; at PI3Kγ it was < 1 µM; on PI3Kα it was > 10 µM; at PI3Kβ, < 10 µM; in the test on Balb/c splenic B cells, < 0.1 µM.
On to `C[C@H](Nc1ncnc2[nH]cnc12)c1cc2cccc(Cl)c2c(CC(=O)N2CCCC2)n1` [Compound 36], for which the IC50 is < 0.1 µM on PI3Kδ; < 10 µM at PI3Kγ; > 10 µM at PI3Kα; < 10 µM at PI3Kβ; < 1 µM in the test on Balb/c splenic B cells.
Turning to `C[C@H](Nc1ncnc2[nH]cnc12)c1cc2cccc(Cl)c2c(CC(=O)N2CCN(C)CC2)n1` [Compound 37], the IC50 was < 1 µM at PI3Kδ; > 10 µM on PI3Kγ; > 10 µM on PI3Kα; > 10 µM at PI3Kβ; < 1 µM with Balb/c splenic B cells.
For the molecule `CC(=O)NCCOc1nc([C@H](C)Nc2ncnc3[nH]cnc23)cc2cccc(Cl)c12` [Compound 40, (S)—N-(2-(3-(1-(9H-purin-6-ylamino)ethyl)-8-chloroisoquinolin-1-yloxy)ethyl)acetamide], the IC50 at PI3Kδ was < 0.1 µM; at PI3Kγ, < 1 µM; on PI3Kα it was < 10 µM; on PI3Kβ, < 10 µM; in the test with Balb/c splenic B cells, < 0.1 µM.
For the molecule `C[C@H](Nc1ncnc2[nH]cnc12)c1cc2cccc(Cl)c2c(OCC(=O)N2CCN(C)CC2)n1` [Compound 42], the IC50 on PI3Kδ was < 0.1 µM; on PI3Kγ, > 10 µM; on PI3Kα, > 10 µM; on PI3Kβ, < 10 µM; with Balb/c splenic B cells, < 1 µM.
For `C[C@H](Nc1ncnc2[nH]cnc12)c1cc2cccc(Cl)c2c(OCC(=O)N2CCOCC2)n1` [Compound 43], the IC50 at PI3Kδ is < 0.1 µM; on PI3Kγ, < 1 µM; on PI3Kα, < 10 µM; on PI3Kβ it was > 10 µM; in the test with Balb/c splenic B cells, < 0.1 µM.
For `CNC(=O)COc1nc([C@H](C)Nc2ncnc3[nH]cnc23)cc2cccc(Cl)c12` [Compound 44], the IC50 at PI3Kδ is < 0.1 µM; at PI3Kγ, < 1 µM; at PI3Kα it was < 10 µM; on PI3Kβ, < 10 µM; in the test on Balb/c splenic B cells, < 1 µM.
Take `C[C@H](Nc1ncnc2[nH]cnc12)c1cc2cccc(Cl)c2c(OCC(=O)N2CCCC2)n1` [Compound 45]: the half-inhibitory concentration (IC50) was < 0.1 µM at PI3Kδ; < 10 µM at PI3Kγ; > 10 µM on PI3Kα; > 10 µM at PI3Kβ; < 1 µM with Balb/c splenic B cells.
For `C[C@H](Nc1ncnc2[nH]cnc12)c1cc2cccc(Cl)c2c(N2CCN(C)CC2)n1` [Compound 46, (S)—N-(1-(8-chloro-1-(4-methylpiperazin-1-yl)isoquinolin-3-yl)ethyl)-9H-purin-6-amine], the IC50 at PI3Kδ was < 0.1 µM; on PI3Kγ, > 10 µM; on PI3Kα it was > 10 µM; at PI3Kβ, < 10 µM; in the test with Balb/c splenic B cells, < 0.1 µM.
As for `CC(C)N1CCC(Oc2nc([C@H](C)Nc3ncnc4[nH]cnc34)cc3cccc(Cl)c23)CC1` [Compound 47, (S)—N-(1-(8-chloro-1-(1-isopropylpiperidin-4-yloxy)isoquinolin-3-yl)ethyl)-9H-purin-6-amine], the IC50 at PI3Kδ is < 0.1 µM; at PI3Kγ, > 10 µM; on PI3Kα, < 10 µM; on PI3Kβ, < 10 µM; in the test on Balb/c splenic B cells it was < 0.1 µM.
Turning to `C[C@H](Nc1ncnc2[nH]cnc12)c1cc2c(F)cccc2c(CCN2CCOCC2)n1` [Compound 53], the IC50 on PI3Kδ is < 0.1 µM; at PI3Kγ, > 10 µM; at PI3Kα it was > 10 µM; at PI3Kβ, > 10 µM; in the test on Balb/c splenic B cells, < 0.1 µM.
Take `Cc1cccc2cc([C@H](C)Nc3ncnc4[nH]cnc34)nc(OC3CCN(C(C)C)CC3)c12` [Compound 57]: the IC50 on PI3Kδ is < 0.1 µM; at PI3Kγ, > 10 µM; at PI3Kα, > 10 µM; at PI3Kβ, < 10 µM; with Balb/c splenic B cells, < 1 µM.
On to `C[C@H](Nc1ncnc2[nH]cnc12)c1cc2c(F)ccc(Cl)c2c(CCN2CCOCC2)n1` [Compound 68], for which the IC50 at PI3Kδ was < 0.1 µM; on PI3Kγ it was < 10 µM; on PI3Kα, < 10 µM; at PI3Kβ it was > 10 µM; in the test with Balb/c splenic B cells, < 0.1 µM.
For the molecule `C[C@H](Nc1ccnc2ccnn12)c1cc2cccc(Cl)c2c(CCN2CCOCC2)n1` [Compound 73], the IC50 at PI3Kδ was < 0.1 µM; on PI3Kγ, < 10 µM; on PI3Kα it was < 10 µM; on PI3Kβ it was < 1 µM; with Balb/c splenic B cells, < 0.1 µM.
`C[C@H](Nc1ncnc2ccccc12)c1cc2cccc(Cl)c2c(CCN2CCOCC2)n1` [Compound 74]: the IC50 is < 0.1 µM on PI3Kδ; < 10 µM on PI3Kγ; < 10 µM at PI3Kα; < 10 µM on PI3Kβ; < 1 µM with Balb/c splenic B cells.
`C[C@H](Nc1ncnc2cccnc12)c1cc2cccc(Cl)c2c(CCN2CCOCC2)n1` [Compound 75]: the IC50 at PI3Kδ was < 0.1 µM; at PI3Kγ it was < 1 µM; at PI3Kα, < 1 µM; on PI3Kβ, < 1 µM; in the test on Balb/c splenic B cells, < 0.1 µM.
In the case of `C[C@H](Nc1ccnn2ccnc12)c1cc2ccccc2c(CCN2CCOCC2)n1` [Compound 77, (S)—N-(1-(1-(2-morpholinoethyl)isoquinolin-3-yl)ethyl)imidazo[1,2-b]pyridazin-8-amine], the IC50 at PI3Kδ was < 0.1 µM; at PI3Kγ it was > 10 µM; on PI3Kα, > 10 µM; on PI3Kβ, > 10 µM; in the test with Balb/c splenic B cells, < 0.1 µM.
With `C[C@H](Nc1ncnc2[nH]cnc12)c1nc(CCN2CCOCC2)c2c(Cl)cccc2c1F` [Compound 85, (S)—N-(1-(8-chloro-4-fluoro-1-(2-morpholinoethyl)isoquinolin-3-yl)ethyl)-9H-purin-6-amine], the IC50 on PI3Kδ was < 1 µM; on PI3Kγ, > 10 µM; at PI3Kα it was > 10 µM; on PI3Kβ it was > 10 µM; with Balb/c splenic B cells it was < 1 µM.
For `CC(C)N1CCN(c2nc([C@H](C)Nc3ncnc4[nH]cnc34)cc3cccc(Cl)c23)CC1` [Compound 90], the IC50 is < 0.1 µM at PI3Kδ; < 10 µM on PI3Kγ; < 10 µM on PI3Kα; < 10 µM at PI3Kβ; < 0.1 µM in the test with Balb/c splenic B cells.
With `CCN1CCN(c2nc([C@H](C)Nc3ncnc4[nH]cnc34)cc3cccc(Cl)c23)CC1` [Compound 91], the 50% inhibitory concentration (IC50) at PI3Kδ is < 0.1 µM; on PI3Kγ, < 10 µM; on PI3Kα, < 10 µM; on PI3Kβ it was < 10 µM; in the test on Balb/c splenic B cells, < 0.1 µM.
For `Cc1cccc2cc([C@H](C)Nc3ncnc4[nH]cnc34)nc(OCC3CCN(C)CC3)c12` [Compound 92], the IC50 on PI3Kδ is < 0.1 µM; at PI3Kγ it was < 10 µM; on PI3Kα it was < 10 µM; on PI3Kβ, < 10 µM; in the test with Balb/c splenic B cells it was < 0.1 µM.
As for `C[C@H](Nc1ncnc2[nH]cnc12)c1cc2cccc(Cl)c2c(SCCN2CCOCC2)n1` [Compound 93, (S)—N-(1-(8-chloro-1-(2-morpholinoethylthio)isoquinolin-3-yl)ethyl)-9H-purin-6-amine], the IC50 at PI3Kδ is < 0.1 µM; at PI3Kγ, < 1 µM; on PI3Kα, < 10 µM; on PI3Kβ, < 1 µM; in the test on Balb/c splenic B cells, < 0.1 µM.
